Several values for one entry are separate records, joined by “and”; a condition that tells them apart may be missing. Identical values can stand only once.
Tested on: WM3248 melanoma cells, 486 antibodies
Assay: Reverse phase protein arrays (RPPA)
Type: cell-based, Human
From the text: Pellets were snap frozen in liquid nitrogen and shipped to MD Anderson Cancer Center core RPPA facility for RPPA analysis (Table S5). Three biological replicates for each sample were generated.
Nomenclatures on the RPPA heatmaps: name_of_antibody.species_of_antibody.status_of_antibody. V - antibody validated; C - validation of antibody in progress; Q - antibody nonspecific; E – under evaluation; antibodies raised in M - mouse, G - goat, R - rabbit, or T - rat.

[1] = Norm_10: replicates 1-3 and Average, relative to 0

CN(C)c1cccc(Nc2cc(-c3ccccc3)nc(C3CCNCC3)n2)c1 [ARN22089, N1,N1-dimethyl-N3-(6-phenyl-2-(piperidin-4-yl)pyrimidin-4-yl)benzene-1,3-diamine]
p38.MAPK.R.V Average (Norm_10, normalized to Norm_0): 0.984 | p38.MAPK._pT180_Y182.R.V Average (Norm_10, normalized to Norm_0): 0.822 | p38.a.M.V Average (Norm_10, normalized to Norm_0): 1.035 | p44.42.MAPK.R.V Average (Norm_10, normalized to Norm_0): 1.129 | p70.S6K1.R.V Average (Norm_10, normalized to Norm_0): 1.024 | p90RSK_pT573.R.C Average (Norm_10, normalized to Norm_0): 0.999 | PREX1.R.V normalized RPPA signal [1]: 1.017 and 0.962 and 0.972 | PTEN.R.V normalized RPPA signal [1]: 1.166 and 0.849 and 0.856 and 0.957 | PTPN12.R.V normalized RPPA signal [1]: 0.749 and 0.939 and 0.909 | PYGB.R.V normalized RPPA signal [1]: 1.205 and 1.156 and 1.144 | PYGM.M.C normalized RPPA signal [1]: 0.918 and 2.001 and 1.335 | Puma.R.C normalized RPPA signal [1]: 1.060 and 1.017 and 1.055 | Pyk2_pY402.R.C normalized RPPA signal [1]: 1.111 and 0.863 and 0.946 | RBM15.R.V normalized RPPA signal [1]: 0.891 and 1.000 and 0.960 and 0.950 | RIP3.R.C normalized RPPA signal [1]: 0.942 and 0.921 and 0.948 and 0.937 | RIP.R.C normalized RPPA signal [1]: 0.780 and 1.118 and 1.150 and 1.016 | RPA32.R.V normalized RPPA signal [1]: 1.060 and 1.362 and 1.197 and 1.207 | RPA32_pS4_S8.R.C normalized RPPA signal [1]: 1.546 and 1.295 and 1.489 and 1.443 | RRM1.R.C normalized RPPA signal [1]: 0.939 and 0.806 and 0.945 and 0.897 | RRM2.R.C normalized RPPA signal [1]: 0.757 and 0.774 and 0.866 | RSK1.R.V normalized RPPA signal [1]: 1.143 and 1.201 and 1.128 | RSK.R.C normalized RPPA signal [1]: 0.838 and 1.004 and 0.972 | Rab11.R.C normalized RPPA signal [1]: 1.030 and 0.917 and 0.953 | Rab25.R.V normalized RPPA signal [1]: 1.035 and 0.882 and 0.858 and 0.925 | Rad17_pS645.R.V normalized RPPA signal [1]: 0.792 and 0.966 | Rad23A.R.C normalized RPPA signal [1]: 0.804 and 0.923 and 1.597 and 1.108 | Rad50.R.V normalized RPPA signal [1]: 1.116 and 1.111 | Rad51.R.C normalized RPPA signal [1]: 0.827 and 0.908 and 0.944 and 0.893 | Raptor.R.V normalized RPPA signal [1]: 0.845 and 0.882 and 0.940 and 0.889 | Rb.M.Q normalized RPPA signal [1]: 0.863 and 1.097 and 1.016 | Rb_pS807_S811.R.V normalized RPPA signal [1]: 0.811 and 0.958 and 0.878 | Rheb.M.C normalized RPPA signal [1]: 1.032 and 1.240 and 1.115 | Rictor.R.C normalized RPPA signal [1]: 0.988 and 0.910 and 0.945 and 0.948 | Rictor_pT1135.R.V normalized RPPA signal [1]: 0.873 and 0.950 and 0.954 | S6.M.V normalized RPPA signal [1]: 1.085 and 0.996 and 1.017 | S6_pS235_S236.R.V normalized RPPA signal [1]: 0.521 and 0.472 and 0.641 and 0.545 | S6_pS240_S244.R.V normalized RPPA signal [1]: 0.582 and 0.274 and 0.654 and 0.504 | SCD.M.V normalized RPPA signal [1]: 0.991 and 1.046 | SDHA.R.V normalized RPPA signal [1]: 0.992 and 0.940 and 0.859 and 0.930 | SF2.R.V normalized RPPA signal [1]: 0.895 and 1.050 and 0.922 and 0.956 | SFRP1.R.V normalized RPPA signal [1]: 0.808 and 0.981 and 1.003 and 0.931 | SGK1.R.V normalized RPPA signal [1]: 1.008 and 0.920 and 1.014 and 0.981 | SGK3.R.V normalized RPPA signal [1]: 0.816 and 0.987 and 0.963 and 0.922 | SHP2.R.V normalized RPPA signal [1]: 0.944 (2×) and 1.029 and 0.972 | SHP.2_pY542.R.C normalized RPPA signal [1]: 1.060 and 0.917 and 0.992 and 0.990 | SIRPαR.V normalized RPPA signal [1]: 0.835 and 1.085 and 0.937 and 0.953 | SLC1A5.R.C normalized RPPA signal [1]: 1.027 | SOD1.M.V normalized RPPA signal [1]: 0.907 and 1.127 and 1.007 and 1.014 | SOD2.R.V normalized RPPA signal [1]: 1.018 and 1.276 and 0.952 and 1.082 | SOX7.R.V normalized RPPA signal [1]: 1.145 and 1.060 | STING.R.V normalized RPPA signal [1]: 0.851 and 0.953 | Shc_pY317.R.C normalized RPPA signal [1]: 0.714 and 5.496 and 1.397 and 2.535 | Slfn11.G.C normalized RPPA signal [1]: 0.876 and 1.082 and 1.481 and 1.146 | Smac.M.Q normalized RPPA signal [1]: 0.850 and 1.137 and 0.963 and 0.983 | Smad1.R.V normalized RPPA signal [1]: 0.960 and 0.924 and 0.963 | Smad3.R.V normalized RPPA signal [1]: 1.062 and 0.979 and 1.026 | Smad4.R.V normalized RPPA signal [1]: 1.013 and 1.128 and 0.985 | Snail.M.Q normalized RPPA signal [1]: 0.664 and 0.941 and 0.860 and 0.822 | Sox2.R.V normalized RPPA signal [1]: 1.126 and 1.008 and 0.910 and 1.015 | Sox17.R.V normalized RPPA signal [1]: 0.905 and 1.111 and 1.000 and 1.005 | Src.M.V normalized RPPA signal [1]: 0.883 and 1.206 and 0.940 and 1.010 | Src_pY416.R.V normalized RPPA signal [1]: 1.030 and 0.914 and 0.902 | Src_pY527.R.V normalized RPPA signal [1]: 1.278 and 0.689 and 0.973 | Stat1_pY701.R.V normalized RPPA signal [1]: 0.995 (2×) and 1.011 and 1.000 | Stat3.R.C normalized RPPA signal [1]: 0.999 and 0.915 and 0.942 | Stat3_pY705.R.C normalized RPPA signal [1]: 1.077 and 1.148 and 1.012 and 1.079 | Stat5a.R.V normalized RPPA signal [1]: 1.155 and 0.661 and 0.766 and 0.861 | Stathmin.1.R.V normalized RPPA signal [1]: 0.870 and 1.129 and 0.982 | Syk.M.V normalized RPPA signal [1]: 0.771 and 0.940 and 1.123 and 0.945 | Synaptophysin.R.C normalized RPPA signal [1]: 0.939 and 1.003 and 0.960 | TAZ.R.V normalized RPPA signal [1]: 0.664 and 1.279 and 1.012 | TEAD.R.C normalized RPPA signal [1]: 0.761 and 0.855 and 1.077 and 0.898 | TFAM.R.V normalized RPPA signal [1]: 0.933 and 0.917 and 0.914 and 0.921 | TFRC.R.V normalized RPPA signal [1]: 0.993 and 0.819 and 0.888 and 0.900 | TIGAR.R.V normalized RPPA signal [1]: 0.948 and 0.928 and 0.972 | TRAP1.M.V normalized RPPA signal [1]: 0.886 and 1.063 and 0.996 | TRIM24.R.C normalized RPPA signal [1]: 0.955 and 1.027 | TRIM25.R.C normalized RPPA signal [1]: 0.793 and 0.863 and 1.102 and 0.919 | TRIP13.R.V normalized RPPA signal [1]: 1.018 and 1.029 and 1.031 | Tau.M.C normalized RPPA signal [1]: 1.047 and 1.298 and 0.928 | Transglutaminase.M.V normalized RPPA signal [1]: 1.016 and 1.436 and 2.172 and 1.541

Source: PMC9127750, “Structure-based design of CDC42 effector interaction inhibitors for the treatment of cancer” (Cell reports, 2022)
